The results in this text go back to ChEMBL document CHEMBL3044721, “Homology modeling of human CCR2 receptor” (Med Chem Res, 2011).

In the test the target is C-C chemokine receptor type 2 (Homo sapiens, UniProt P41597). The test is described as follows: Antagonist activity at Homo sapiens (human) CCR2 receptor.
C-C chemokine receptor type 2, sequence (P41597 whole entry): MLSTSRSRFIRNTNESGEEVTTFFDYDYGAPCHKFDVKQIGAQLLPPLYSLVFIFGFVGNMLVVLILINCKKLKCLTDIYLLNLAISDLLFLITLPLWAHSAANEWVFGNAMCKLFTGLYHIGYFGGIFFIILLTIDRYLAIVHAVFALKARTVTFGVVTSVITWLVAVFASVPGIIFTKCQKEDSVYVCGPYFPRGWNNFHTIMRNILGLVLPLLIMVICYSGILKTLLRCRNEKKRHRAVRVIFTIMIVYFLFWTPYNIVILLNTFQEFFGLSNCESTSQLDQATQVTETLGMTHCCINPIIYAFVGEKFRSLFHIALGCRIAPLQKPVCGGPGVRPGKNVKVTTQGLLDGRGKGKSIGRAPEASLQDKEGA

As a reminder, the IC50 is the concentration at which inhibition is half-maximal. Lower therefore signals greater potency. `O=C(NCc1cc(C(F)(F)F)cc(C(F)(F)F)c1)[C@H](NCCN1CCCCC1)c1ccsc1`: the IC50 was determined as 39 nM.

Regarding `CO[C@@H]1COCC[C@@H]1N[C@@H]1CC[C@](C(=O)N2CCc3ncc(C(F)(F)F)cc3C2)(C(C)C)C1`, 5 nM corresponded to half-maximal inhibition (IC50).
